In PMC3413433, “A novel cytarabine crystalline lipid prodrug: Hexadecyloxypropyl cytarabine 3′,5′-cyclic monophosphate for proliferative vitreoretinopathy” (Molecular Vision, 2012):
Several values for one entry are separate records, joined by “and”; a condition that tells them apart may be missing. Equal values may be shown once. Entries after “also recorded” stand apart in the source; their conditions may differ. Marks after values point to notes of the source that are not given here.

Columns and labels:
[1] = Simulated intravitreal clearance kinetics (dissolution chamber); type: in vitro ADME
Method: Dissolution starting from an intravitreal drug depot was simulated using a custom chamber and a syringe pump. The drug powder (600 µg) was weighed into the chamber, which had 1.5 ml of effective circulation volume to mimic the rabbit vitreous. The chamber was filled with 1.5 ml of Hank’s Balanced Salt Solution (HBSS). The chamber was then connected by tubing to a NE-1000 syringe pump (New Era Pump Systems, Farmingdale, NY) on one end and open tubing on the other end so that the solution could be collected into a vial (Figure 1). The syringe pump was set to a flow rate of 2 µl/min [12], and the syringe filled with HBSS. The entire setup was maintained at 37 °C and pumped continuously. This dissolution chamber mimics the rabbit vitreous fluid turnover only. […] At the same time every day, the vial was changed and the contents collected and stored at −80 °C until liquid chromatography/mass spectrometry (LC/MS) was performed.
Figure 1 The dissolution chamber is made of poly methyl methacrylate. Inlet tubing connects from a syringe pump to the upper part of the chamber, and the outlet tubing leaves from the lower part of the chamber to the sample collector. In the center of the dissolution chamber, a titanium mesh circle is installed to prevent the large drug particles reaching the lower chamber to possibly clog the outgoing tubing. The mesh contains […].

ARPE-19 cells = experiment: Cell proliferation assay (ARPE-19/WST-1); type: cell-based; details: Homo sapiens, 120 h, 5 days, WST-1, read-out: 50% cytotoxicity concentration (CC50)
Method: (§1) Human retinal pigment epithelium (ARPE-19) cells were obtained from the American Type Culture Collection (ATCC; Manassas, VA). A rat Müller cell line, rMC-1, was provided by Dr. Gabe Silva at UC San Diego (originally obtained from Dr. Vijay Sarthy, Northwestern University, Chicago, IL). ARPE-19 cells were cultured in Dulbecco’s modified Eagle medium (DMEM)/F12 and rMC-1 in DMEM. DMEM/F12 medium and DMEM were maintained at 37 °C in a humidified chamber of 5% CO2. All culture media were supplemented with 10% fetal bovine serum, 100 U/ml penicillin, and 100 µg/ml streptomycin. The cell lines were chosen due to their dominant presence in the pathology of proliferative vitreoretinopathy.
ARPE-19 cells were plated in 96-well plates at […] per well. Serial dilutions of the compounds were added to the wells in a total volume of 100 µl. The plates were maintained in a 37 °C incubator. After 5 days, 10 µl of a solution of WST-1 (Roche Diagnostics, Indianapolis, IN) was added to each well, and the plates returned to the incubator for 0.5 h, after which the OD450 of each well was measured. Percent inhibition data were obtained from at least three experiments with at least six wells at each concentration in separate 96-well plates. […] The results were expressed as the percentage of the optical density of treated cells relative to that of untreated controls.

rat eyes = experiment: Toxicity study of HDP-P-Ara-C in rat eyes (intravitreal injection); type: in vivo
Method: Twelve Brown Norway rats were used to evaluate the effect of intravitreal HDP-P-Ara-C versus control injection. […] Only one eye of each rat was injected with the drug, and the fellow eye was injected with saline as control. Electroretinograms (ERGs) were obtained before drug injection and 1 day before scheduled sacrifice. Following injection, toxicity and safety were evaluated with indirect ophthalmoscopy, biomicroscopy, and fundus photography. At week 2 following drug injections, all of the rats were euthanized with intraperitoneal injection of ketamine (100 mg/kg) and xylazine (10 mg/kg) followed by intraperitoneal injection of 120 mg/kg sodium pentobarbital. Six eyes were used for pathologic evaluation and six eyes used for evaluation of vitreous drug level. Vitreous drug levels were determined at the end of the experiment using high-performance liquid chromatography (HPLC).
(§2) Intraocular pressure (IOP) measurements and ERG recordings were repeated measurement data. Therefore, generalized estimating equations were used to compare the mean IOP and ERG amplitudes between each treatment group and the control group. All analyses were performed with SAS 9.2 software (SAS Institute Inc., Cary, NC), and the difference was considered to be significant when the p value was smaller than 0.05.

rMC-1 cells = experiment: Cell proliferation assay (rMC-1/XTT); type: cell-based; details: Rattus norvegicus, 120 h, 5 days, XTT, read-out: 50% cytotoxicity concentration (CC50)
Method: as §1
rMC-1 cells were plated in 96-well plates at […] per well. Serial dilutions of the compounds were added to the wells in a total volume of 100 µl. The plates were maintained in a 37 °C incubator. After 5 days, 50 µl of a solution of XTT (Roche Molecular Biochemicals, Indianapolis, IN) was added to each well, and the plates returned to the incubator for 30 min, after which the […] (OD) of each well was measured at a wavelength of 450 nanometers. Percent inhibition was determined by comparing the OD of wells containing compound to the OD of control wells.

[2] = Water solubility (observation); type: physicochemical
rabbit eyes = experiment: Toxicity study of HDP-cP-Ara-C in rabbit eyes (intravitreal injection); type: in vivo; details: for Dark A amp (dark adapted ERG a-wave amplitude) / Dark B amp / Flicker amp / Light A amp / Light B amp: OD, n=4, in µV (unit assumed)
Excerpt: Sixteen New Zealand Red rabbits were used for this study. Only one eye of each animal was used for the drug testing, and the fellow eye was used as a control by injection of the diluent. […] After the intravitreal injection, the rabbits were examined at week 1, 2, 4, 8, and 12 and then once a month for 7 months. The eyes were monitored with slit-lamp exam, tonometry, indirect ophthalmoscope, and fundus camera. The drug depot size was estimated and recorded using the optic disc area and the drug depot contour in the vitreous. The number of disc areas for estimating the two dimensions of the drug depot and the contour (ball=3, patch=2, filaments and dots=1) provides an estimate of the density of the drug depot. ERGs were recorded from all animals at week 2, week 8, and immediately before the animals were euthanized by deeply anesthetizing the animals with a combined ketamine (24 mg/kg) and xylazine (6 mg/kg) intramuscular injection followed by an intravenous injection of 0.3 ml/kg B-euthanasia (Schering-Plough Animal Health, Kenilworth, NJ).
as §2

[3] = set-up: method as in PMID 1917392; details: unmodified nucleoside; cited from earlier work
experimental PVR = test system: experimental PVR; set-up: method as in PMID 10359331; details: intravitreal injection; cited from earlier work
herpes simplex virus = test system: herpes simplex virus; set-up: method as in PMID 15505067; details: single intravitreal injection; cited from earlier work

With CCCCCCCCCCCCCCCCOCCCOP(=O)(O)OC[C@H]1O[C@@H](n2ccc(N)nc2=O)[C@@H](O)[C@@H]1O [HDP-P-Ara-C, hexadecyloxypropyl cytarabine 5′-monophosphate] the “drug in eluate samples” value ([1]; day 7 and after) was “no drug was detected”, the “drug cleared from the chamber” value ([1]; within 3 days, flow rate 2 µl/min) was 99% and the CC50 (ARPE-19 cells) was 52 ± 2.6 µM. For the same compound, the “depot formation in the vitreous” value (rat eyes; after intravitreal injection) was “did not form a depot”, the ocular toxicity (rat eyes; intravitreal 2-228 µg/eye, 2 weeks) was “no ocular toxicity was found” and the ERG and pathology (rat eyes; intravitreal, 2 weeks) was “normal retinal physiology and histology”. The “vitreous drug level (HPLC)” value (rat eyes; week 2 after intravitreal injection, including highest dose 228 µg/eye) was “not detectable; also recorded: no drug was detectable; also recorded: no HDP-P-Ara-C was detected” and the CC50 (rMC-1 cells) was 32 ± 2.2 µM.
With CCCCCCCCCCCCCCCCOCCCOP1(=O)OC[C@H]2O[C@@H](n3ccc(N)nc3=O)[C@@H](O)[C@@H]2O1 (stereo partly shown) [HDP-cP-Ara-C, hexadecyloxypropyl cytarabine 3′,5′-cyclic monophosphate] the “drug concentration in the eluate (low-level sustained release)” value ([1]; day 25 to day 36) was “about 16 ng/mL”, the “day of peak release” value ([1]; dissolution chamber eluate) was 9 days and ~10 days and the “hydrolysis to HDP-P-Ara-C during the dissolution experiment” value ([1]; eluate analysis, medium printed as PBS, HBSS) was “slow hydrolysis”. The “time still detectable in dissolution chamber eluate” value ([1]; end of experiment, flow rate 2 µL/min) was at least 36 days, the CC50 (ARPE-19 cells) was 50 µM and the water solubility [2] was “limited aqueous solubility; also recorded: minimally water soluble; also recorded: sparingly water soluble”. The CC50 (rMC-1 cells) was 25 µM, the “TUNEL staining / retinal structure” value (rabbit eyes; 250 µg intravitreal, paraffin sections vs fellow eye) was “No structural abnormality or apoptosis; also recorded: normal structures and negative apoptosis staining” and the ERG examination (rabbit eyes; 250 µg or lower doses) was “did not reveal drug toxicity”. The “eyes with direct contact of drug depot with optic nerve or inferior retina (gliosis, discoloration)” value (rabbit eyes; 800 µg, 7-month study) was “two eyes out of the four eyes”, the “dark adapted a-wave and flicker ERG amplitude vs fellow control eyes” value (rabbit eyes; 800 µg/eye) was “significantly lower” and the “intraocular pressure, injected eyes vs fellow eyes” value (rabbit eyes; 25-800 µg/eye) was “no significant difference”. The “estimated time drug depot would be visible” value (rabbit eyes; 80 or 250 µg/eye, estimation of vitreal clearance) was 3 months, the “time drug depots visible” value (rabbit eyes; all doses (25-800 µg/eye)) was at least 2 months and the “Dark A amp (dark adapted ERG a-wave amplitude)” value (shortened to “Dark A amp”) (rabbit eyes; high dose 250 µg/eye) was −15.6. For the same compound, the “Dark B amp” value (rabbit eyes; high dose 250 µg/eye) was 83.19, the Flicker amp (rabbit eyes; high dose 250 µg/eye) was 25.07 and the “Light A amp” value (rabbit eyes; high dose 250 µg/eye) was −3.57. For the same compound, the “Light B amp” value (rabbit eyes; high dose 250 µg/eye) was 49.68, the “Dark A amp” value (rabbit eyes; highest dose 800 µg/eye) was −11.69 and the “Dark B amp” value (rabbit eyes; highest dose 800 µg/eye) was 95.35. The Flicker amp (rabbit eyes; highest dose 800 µg/eye) was 21.09, the “Light A amp” value (rabbit eyes; highest dose 800 µg/eye) was −5.57 and the “Light B amp” value (rabbit eyes; highest dose 800 µg/eye) was 48.06. For the same compound, the “time drug depot still visible” value (rabbit eyes; highest dose (800 µg/eye)) was at least 7 months, the well tolerated dose (rabbit eyes; intravitreal) was “up to 250 µg/eye” and the “Dark A amp” value (rabbit eyes; low dose 25 µg/eye) was −14.44. The “Dark B amp” value (rabbit eyes; low dose 25 µg/eye) was 88.14, the Flicker amp (rabbit eyes; low dose 25 µg/eye) was 22.58 and the “Light A amp” value (rabbit eyes; low dose 25 µg/eye) was −4.49. For the same compound, the “Light B amp” value (rabbit eyes; low dose 25 µg/eye) was 47.93, the “Dark B amp” value (rabbit eyes; moderate dose 80 µg/eye) was 79.31 and the Flicker amp (rabbit eyes; moderate dose 80 µg/eye) was 23.51. For the same compound, the “Light A amp” value (rabbit eyes; moderate dose 80 µg/eye) was −5.64, the “Light B amp” value (rabbit eyes; moderate dose 80 µg/eye) was 42.83 and the “AC cell (eyes affected/eyes)” value (rabbit eyes; week 1, 25 µg) was 0/4. The “Fundus abnormality (eyes affected/eyes)” value (rabbit eyes; week 1, 25 µg) was 0/4, the “Vit. Clarity (eyes affected/eyes)” value (rabbit eyes; week 1, 25 µg, haze from vitreous hemorrhage during injection) was 1/4# and the “AC cell (eyes affected/eyes)” value (rabbit eyes; week 1, 80 µg) was 0/4. The “Fundus abnormality (eyes affected/eyes)” value (rabbit eyes; week 1, 80 µg) was 0/4, the “Vit. Clarity (eyes affected/eyes)” value (rabbit eyes; week 1, 80 µg) was 0/4 and the “AC cell (eyes affected/eyes)” value (rabbit eyes; week 1, 250 µg) was 0/4. The “Fundus abnormality (eyes affected/eyes)” value (rabbit eyes; week 1, 250 µg) was 0/4, the “Vit. Clarity (eyes affected/eyes)” value (rabbit eyes; week 1, 250 µg) was 0/4 and the “AC cell (eyes affected/eyes)” value (rabbit eyes; week 1, 800 µg) was 0/4. The “Fundus abnormality (eyes affected/eyes)” value (rabbit eyes; week 1, 800 µg) was 0/4, the “Vit. Clarity (eyes affected/eyes)” value (rabbit eyes; week 1, 800 µg) was 0/4 and the “AC cell (eyes affected/eyes)” value (rabbit eyes; week 8, 25 µg) was 0/4. For the same compound, the “Fundus abnormality (eyes affected/eyes)” value (rabbit eyes; week 8, 25 µg) was 0/4, the “Vit. Clarity (eyes affected/eyes)” value (rabbit eyes; week 8, 25 µg) was 0/4 and the “AC cell (eyes affected/eyes)” value (rabbit eyes; week 8, 80 µg) was 0/4. The “Fundus abnormality (eyes affected/eyes)” value (rabbit eyes; week 8, 80 µg) was 0/4, the “Vit. Clarity (eyes affected/eyes)” value (rabbit eyes; week 8, 80 µg) was 0/4 and the “AC cell (eyes affected/eyes)” value (rabbit eyes; week 8, 250 µg) was 0/4. The “Fundus abnormality (eyes affected/eyes)” value (rabbit eyes; week 8, 250 µg) was 0/4, the “Vit. Clarity (eyes affected/eyes)” value (rabbit eyes; week 8, 250 µg) was 0/4 and the “AC cell (eyes affected/eyes)” value (rabbit eyes; week 28, 800 µg) was 0/4. The “Vit. Clarity (eyes affected/eyes)” value (rabbit eyes; week 28, 800 µg) was 0/4 and the “Fundus abnormality (eyes affected/eyes)” value (rabbit eyes; week 28, 800 µg, direct contact of depot with medullary ray or inferior retina) was 2/4*.
For Nc1ccn([C@@H]2O[C@H](CO)[C@@H](O)[C@@H]2O)c(=O)n1 [cytarabine, 1-β-D-arabinofuranosylcytosine], the intravitreal half-life [3] is given as at most 12 h.
For CCCCCCCCCCCCCCCCOCCCOP1(=O)OCC2OC(n3cc(F)c(=O)[nH]c3=O)CC2O1 (stereo not shown) [hexadecyloxypropyl 5-fluoro-2'-deoxyuridine cyclic 3′,5′-monophosphate], the “effect on experimental PVR” value (experimental PVR) is listed as “inhibited experimental PVR”.
In the case of CCCCCCCCCCCCCCCCOCCCOP1(=O)CO[C@@H](Cn2ccc(N)nc2=O)CO1 (stereo partly shown) [hexadecyloxypropyl cyclic cidofovir], the “duration of herpes simplex virus suppression” value (herpes simplex virus) is given as “up to 4 months”.
